Measured values reported in ChEMBL document CHEMBL1134304, “Discovery of novel p-arylthio cinnamides as antagonists of leukocyte function-associated antigen-1/intercellular adhesion molecule-1 interaction. 4. Structure-activity relationship of substituents on the benzene ring of the cinnamide” (J Med Chem, 2001).

How the values were obtained:
Integrin alpha-L = molecular target: T1, Integrin alpha-L (Homo sapiens, UniProt P20701); assay: Inhibition of intercellular adhesion molecule-1 (ICAM-1) binding to recombinant LFA-1, range(130-170)
T1 sequence (P20701 whole entry): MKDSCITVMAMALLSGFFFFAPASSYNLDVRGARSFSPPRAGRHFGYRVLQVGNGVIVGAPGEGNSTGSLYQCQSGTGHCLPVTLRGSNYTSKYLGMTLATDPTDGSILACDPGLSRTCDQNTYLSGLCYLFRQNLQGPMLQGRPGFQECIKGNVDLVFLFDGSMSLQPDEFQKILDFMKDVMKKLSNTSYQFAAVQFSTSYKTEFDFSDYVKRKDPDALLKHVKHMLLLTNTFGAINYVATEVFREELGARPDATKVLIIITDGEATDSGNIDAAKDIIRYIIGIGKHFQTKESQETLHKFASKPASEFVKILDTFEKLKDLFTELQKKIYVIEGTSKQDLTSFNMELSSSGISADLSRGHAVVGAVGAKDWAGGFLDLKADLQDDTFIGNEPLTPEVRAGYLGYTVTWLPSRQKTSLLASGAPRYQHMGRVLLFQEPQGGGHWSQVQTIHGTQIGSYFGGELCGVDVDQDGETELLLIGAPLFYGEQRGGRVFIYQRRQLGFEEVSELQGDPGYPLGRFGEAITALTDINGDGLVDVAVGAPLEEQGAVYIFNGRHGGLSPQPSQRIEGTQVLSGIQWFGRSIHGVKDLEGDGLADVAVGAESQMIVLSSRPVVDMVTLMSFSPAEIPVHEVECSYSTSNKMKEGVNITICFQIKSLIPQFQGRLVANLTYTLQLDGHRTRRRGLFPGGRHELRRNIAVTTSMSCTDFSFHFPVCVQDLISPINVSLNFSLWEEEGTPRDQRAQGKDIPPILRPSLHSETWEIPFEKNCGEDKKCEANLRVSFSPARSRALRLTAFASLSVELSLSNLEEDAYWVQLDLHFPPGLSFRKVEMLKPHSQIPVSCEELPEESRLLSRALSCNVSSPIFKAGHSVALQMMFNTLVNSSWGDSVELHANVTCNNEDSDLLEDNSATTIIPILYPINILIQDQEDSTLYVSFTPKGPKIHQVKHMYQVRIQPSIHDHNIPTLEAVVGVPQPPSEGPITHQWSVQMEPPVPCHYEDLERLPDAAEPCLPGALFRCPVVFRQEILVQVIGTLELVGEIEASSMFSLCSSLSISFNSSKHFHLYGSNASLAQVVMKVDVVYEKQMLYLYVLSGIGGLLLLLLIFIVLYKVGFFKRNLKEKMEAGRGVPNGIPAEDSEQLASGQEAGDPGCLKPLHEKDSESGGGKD

[1] = molecular target: Intercellular adhesion molecule (ICAM-1), Integrin alpha-L/beta-2 (Homo sapiens, UniProt P05107+P20701); assay: Inhibition of LFA-1 mediated JY-8 cell adhesion to ICAM-1, range (6-100); format: functional, cell-based
Sequence of Intercellular adhesion molecule (ICAM-1), Integrin alpha-L/beta-2 (P05362 whole entry, one chain of several, further chain): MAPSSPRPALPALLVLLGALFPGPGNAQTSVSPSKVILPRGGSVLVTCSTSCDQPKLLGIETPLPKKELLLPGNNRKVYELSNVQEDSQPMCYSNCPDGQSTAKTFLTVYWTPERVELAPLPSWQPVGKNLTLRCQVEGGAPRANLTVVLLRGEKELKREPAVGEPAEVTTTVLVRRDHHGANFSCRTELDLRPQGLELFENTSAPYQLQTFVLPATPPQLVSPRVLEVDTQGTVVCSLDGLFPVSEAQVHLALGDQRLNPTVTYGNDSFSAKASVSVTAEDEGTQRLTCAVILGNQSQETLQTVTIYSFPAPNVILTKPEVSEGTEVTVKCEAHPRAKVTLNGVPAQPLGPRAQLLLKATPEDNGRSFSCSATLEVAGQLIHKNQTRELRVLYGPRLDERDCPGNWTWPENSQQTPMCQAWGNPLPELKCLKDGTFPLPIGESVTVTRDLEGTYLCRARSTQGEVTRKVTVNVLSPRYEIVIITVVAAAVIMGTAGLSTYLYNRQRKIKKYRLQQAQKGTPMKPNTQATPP
Sequence of Intercellular adhesion molecule (ICAM-1), Integrin alpha-L/beta-2 (P05107 whole entry, one chain of several): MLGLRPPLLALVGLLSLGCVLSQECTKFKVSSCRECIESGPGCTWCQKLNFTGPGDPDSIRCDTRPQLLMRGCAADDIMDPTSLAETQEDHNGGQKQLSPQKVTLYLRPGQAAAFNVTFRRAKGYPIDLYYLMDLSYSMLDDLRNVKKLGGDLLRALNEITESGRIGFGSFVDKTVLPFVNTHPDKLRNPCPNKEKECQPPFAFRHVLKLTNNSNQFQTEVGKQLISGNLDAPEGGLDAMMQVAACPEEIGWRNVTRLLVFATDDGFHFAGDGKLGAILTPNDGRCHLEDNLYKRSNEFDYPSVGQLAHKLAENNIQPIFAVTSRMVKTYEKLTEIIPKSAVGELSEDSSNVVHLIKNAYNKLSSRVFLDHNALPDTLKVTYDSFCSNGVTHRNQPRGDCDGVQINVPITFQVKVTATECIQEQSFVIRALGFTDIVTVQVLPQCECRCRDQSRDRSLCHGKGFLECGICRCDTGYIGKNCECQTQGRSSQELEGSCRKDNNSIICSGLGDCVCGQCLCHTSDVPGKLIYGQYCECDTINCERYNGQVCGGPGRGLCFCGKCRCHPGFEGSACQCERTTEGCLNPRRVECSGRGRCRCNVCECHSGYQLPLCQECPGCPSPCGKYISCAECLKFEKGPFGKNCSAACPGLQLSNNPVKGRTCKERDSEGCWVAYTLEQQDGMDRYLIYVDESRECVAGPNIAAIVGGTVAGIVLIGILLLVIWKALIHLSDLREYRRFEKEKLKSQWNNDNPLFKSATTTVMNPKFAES

IC50 (Integrin alpha-L): 150 nM | IC50 [1]: 40 nM
SMILES: COc1ccccc1Sc1ccc(/C=C/C(=O)N2CCOCC2)cc1Cl
